Where two headings read alike, the source gives them in different places.
Columns and labels:
[1] = system: T. cruzi epimastigotes NINOA strain; assay: Anti-Trypanosoma cruzi activity, epimastigotes NINOA strain (MTT); assay type: cell-based; conditions: for IC50: 48 h, read-out: T. cruzi IC50 NINOA
Procedure: (§1) Epimastigotes from A1 and the NINOA strains were used to evaluate the trypanocidal activity. Both strains were maintained in liver infusion tryptose (LIT) medium, supplemented with 10% heat-inactivated FBS and 100 U/mL of penicillin plus 100 μg/mL of streptomycin. They were preserved by transferring 1 × 10^6 parasites/mL into a new culture medium every week. […] All compounds were initially prepared at 10 mg/mL, using dimethyl sulfoxide (DMSO) 0.2% as diluent. […] T. cruzi epimastigotes (1 × 10^6/well) were cultured in 96-well microliter plates and incubated for 48 h at 28 °C with the drugs at different concentrations in a final volume of 200 μL. DMSO 0.2% was included as a negative control. […] All assays were carried out in triplicate. The IC50 values were determined by Probit analysis.

[2] = Cytotoxic analysis against J774.2 macrophages (MTT); conditions: mouse
Procedure: (§2) The assay was performed on mouse macrophages from the J774.2 cell line that were cultured in RPMI medium supplemented with 10% SFB, […] penicillin, […] streptomycin, and glutamine (2 mM) at 37 °C and in a 5% CO2 atmosphere. The medium was replaced at 2–3-day intervals. […] Cells in the presence of the maximum concentration of DMSO (0.2%) were included as a negative control; the metabolic activity of the cells was determined following the MTT method. The percentage of cell viability was calculated, and the half-maximal cytotoxic concentration (CC50) was determined by Probit analysis. Three independent assays were performed in triplicate each.

[3] = system: T. cruzi epimastigotes A1 strain; assay: Anti-Trypanosoma cruzi activity, epimastigotes A1 strain (MTT); assay type: cell-based; conditions: for IC50: 48 h
Procedure: as §1

[4] = system: L. mexicana promastigotes FCQEPS native isolate; assay: Anti-Leishmania mexicana activity, promastigotes FCQEPS native isolate (MTT); assay type: cell-based; conditions: 48 h, read-out: L. mexicana IC50 FCQEPS
Procedure: (§3) The IC50 was determined using the Probit statistical tool. Each sample was assayed in triplicate in three independent experiments.

[5] = system: L. mexicana promastigotes MNYC/BZ/62/M379 (M379) strain; assay: Anti-Leishmania mexicana activity, promastigotes M379 reference strain (MTT); assay type: cell-based; conditions: for IC50: 48 h, read-out: L. mexicana IC50 M379
Procedure: as §3

T. cruzi = conditions: cited from earlier work
[6] = system: Tulahuén strain of T. cruzi; parameters: method as in PMID 35698116; conditions: in words; cited from earlier work
[7] = system: J774.2 macrophage cell line; assay: Cytotoxic analysis against J774.2 macrophages (MTT); conditions: for cytotoxicity (in words): J774.2 macrophages
Procedure: as §2

[8] = Trypanosoma cruzi, epimastigotes, NINOA strain, MTT
[9] = Trypanosoma cruzi, epimastigotes, A1 strain, MTT, read-out: T. cruzi IC50 A1
[10] = Leishmania mexicana, promastigotes, FCQEPS native isolate, MTT
[11] = Leishmania mexicana, promastigotes, M379 strain, MTT
[12] = Trypanosoma cruzi, read-out: T. cruzi IC50 A1, epimastigotes, A1 strain, 48 h, MTT
[13] = promastigotes, FCQEPS native isolate, MTT

SMILES	IC50 [1, 8] [µM]	CC50 at 48 h ([2]; J774.2 macrophage cells) [µM]	IC50 [3, 9] [µM]	IC50 [4, 10] [µM]	IC50 [5, 11] [µM]	further results
CC(C)=CCCC(C)CCO (stereo not drawn) [Compound 11, β-citronellol]	53.6 ± 3.3	> 200	21.54 ± 0.2	> 200	71 ± 1	–
OC1CCCC1 [Compound 18, cyclopentyl alcohol]	> 200	24.4 ± 3.2	10.83 ± 0.1	125.4 ± 0.2	5.48 ± 0.1	–
O=C(Cn1ccnc1[N+](=O)[O-])NCc1ccccc1 [Bzn, Benznidazole, reference compound]	39.08 ± 0.1	–	30.3 ± 0.03	–	–	–
CC(C)=CCC/C(C)=C\CO [Compound 13, nerol]	–	–	–	–	–	IC50 ([1]; Trypanosoma cruzi): 58.3 ± 0.3 µM; CC50 at 48 h [2]: > 200 µM; IC50 [3, 12]: 125 µM; IC50 ([3]; read-out: T. cruzi IC50 A1, epimastigotes, A1 strain, MTT): 65.7 ± 3.1 µM; IC50 ([4]; Leishmania mexicana): > 200 µM; IC50 ([5]; Leishmania mexicana): 106 ± 6 µM
C=C(C)[C@H]1CC=C(CO)CC1 [Compound 15]	> 200	> 200	> 200	> 200	34.4 ± 2.8	trypanocidal activity A1 strain (in words) ([3]; epimastigotes, A1 strain): no biological activity
OCc1ccccc1 [Compound 1, benzyl alcohol]	> 200	26.5 ± 2.1	62.28 ± 0.2	104 ± 0.3	> 200	–
Oc1ccc(/C=C/c2cc(O)cc(O)c2)cc1 [resveratrol]	–	–	–	–	–	IC50 (T. cruzi; resveratrol): 40 µM
CC1CS(=O)(=O)CCN1/N=C/c1ccc([N+](=O)[O-])o1 (stereo not shown) [Nfx, Nifurtimox, reference compound]	19.3 ± 0.1	–	7.09 ± 0.1	–	–	–
CC(C)[C@H]1CC[C@H](C)C[C@@H]1O [Compound 14, l-(-)-menthol]	24.5 ± 0.7	> 200	> 200	> 200	81.5 ± 4.7	trypanocidal activity against the Tulahuén strain [6]: null trypanocidal activity; trypanocidal activity A1 strain (in words) ([3]; epimastigotes, A1 strain): no biological activity
CNC[C@H](O)[C@@H](O)[C@H](O)[C@H](O)CO.[O]=[Sb](=[O])[OH] [Glu, Glucantime, reference compound]	–	–	–	–	–	CC50 ([7]; read-out: Cytotoxicity CC50 J774.2, mouse macrophages J774.2, 48 h, MTT): > 273 µM; IC50 [4, 13]: 134 ± 4.3 µM; IC50 ([5]; promastigotes, M379 strain, MTT): > 200 µM
OCCc1ccccc1 [Compound 7, phenethyl alcohol]	48.24 ± 0.3	89.6	> 200	42.24 ± 0.1	21.7 ± 1.7	cytotoxicity (in words) [7]: high cytotoxicity
COc1ccc(CCO)cc1 [Compound 8, 4-methoxyphenethyl alcohol]	> 200	> 200	> 200	> 200	52.08 ± 0.5	trypanocidal activity NINOA strain (in words) ([1]; epimastigotes, NINOA strain): no biological activity
Cc1ccc(CO)cc1 [Compound 2, 4-methylbenzyl alcohol]	51.85 ± 0.01	> 200	50.4 ± 1.8	> 200	> 200	–
CC(C)=CCC/C(C)=C/CO [Compound 12, geraniol]	41 ± 1.2	–	125 ± 5.5	> 200	57 ± 5.1	CC50 at 48 h [2]: > 200 µM
OCC=Cc1ccccc1 [Compound 9, cinnamyl alcohol]	> 200	47.35 ± 0.1	22.12 ± 0.2	29.06 ± 0.1	12.1 ± 0.2	trypanocidal activity NINOA strain (in words) ([1]; epimastigotes, NINOA strain): no biological activity; cytotoxicity (in words) [7]: high cytotoxicity
OCc1ccc2ccccc2c1 [Compound 5, 2-naphtalenemethanol]	119	> 200	> 200	125	40.1 ± 4.7	IC50 ([1]; epimastigotes, NINOA strain, MTT): 125 ± 3.2 µM; IC50 [4, 13]: > 200 µM
Cc1ccccc1CO [Compound 3, 2-methylbenzyl alcohol]	> 200	64.2 ± 0.2	> 200	–	14.2 ± 0.2	cytotoxicity (in words) [7]: high cytotoxicity
OCc1ccc2c(c1)OCO2 [Compound 6, piperonyl alcohol]	–	–	–	–	–	IC50 ([1]; Trypanosoma cruzi): > 200 µM; CC50 at 48 h [2]: 62.2 ± 3.2 µM; IC50 [3, 12]: > 200 µM; IC50 ([4]; Leishmania mexicana): 49.11 ± 0.1 µM; IC50 ([5]; Leishmania mexicana): 23.61 ± 0.2 µM
CC1=CC[C@@H](C(C)(C)O)CC1 [Compound 16, α-terpineol]	> 200	–	14 ± 0.2	75.57 ± 0.03	14 ± 0.2	CC50 at 48 h [2]: 63.4 ± 0.9 µM
CC1CCC(C(C)C)C(O)C1 (racemic) [dl-menthol]	–	–	–	–	–	IC50 (T. cruzi; dl-menthol): 173 µM
CC(C)=CCO [Compound 10, prenol]	27.3 ± 1	> 200	> 200	> 200	> 200	leishmanicidal activity M379 strain (in words) ([5]; promastigotes, M379 strain): did not have leishmanicidal activity
